Data as given in patent publication US20140363454A1, “Antibody-Drug Conjugates, Compositions and Methods of Use” (Igenica Biotherapeutics, Inc., priority 2013, published 2014).
Read-outs that look alike come from different tables or passages of the source. Where a SMILES comes first, the peptide text is derived from it. [ ]: non-standard residue; d: D form. Dolaproine = CO[C@@H]([C@@H]1CCCN1)[C@@H](C)C(=O)O; Dil = CC[C@H](C)[C@H](NC)[C@@H](CC(=O)O)OC; NMeV = CN[C@H](C(=O)O)C(C)C

System: BT474 (HER2+) cell line
Assay: Standard cellular cytotoxicity assay, BT474 (HER2+) cell line
Assay type: cell-based, human
Text: The cytotoxicity of tubulysins T1 and T2 was compared to the cytotoxicity of MMAF using the BT474 (HER2+) cell line in a standard cellular cytotoxicity assay.

Structure (SMILES) | IC50 (Homo sapiens, BT-474) [nM] | IC50 [nM]
CC[C@H](C)[C@H](NC(=O)[C@H]1CCCCN1C)C(=O)N(C)[C@H](C[C@@H](OC(C)=O)c1nc(C(=O)O)cs1)C(C)C [Entry T1] | 11 | –
CC[C@H](C)[C@H](NC(=O)[C@H]1CCCCN1C)C(=O)N(C)[C@H](C[C@@H](OC(C)=O)c1nc(C(=O)N[C@@H](Cc2ccccc2)C[C@H](C)C(=O)O)cs1)C(C)C [Entry T2] | < 0.1 | –
CC[C@H](C)[C@@H]([C@@H](CC(=O)N1CCC[C@H]1[C@H](OC)[C@@H](C)C(=O)N[C@@H](Cc1ccccc1)C(=O)O)OC)N(C)C(=O)[C@@H](NC(=O)[C@@H](NC)C(C)C)C(C)C [MMAF, monomethylauristatin F] (H-[NMeV]V[Dil][Dolaproine]F-OH) | – | 93
